According to US9249129B2, “Morpholino substituted urea derivatives as mTOR inhibitors” (CELLZOME LIMITED, priority 2010, dated 2016):
Read-outs that look alike come from different tables or passages of the source.

How the values were obtained:
Type in all cases: binding
PI3K delta (PI3Kd) = molecular target: T1, PI3K delta (PI3Kd) (Homo sapiens, UniProt O00329); assay: kinobeads assay, PI3K delta (dot blot detection)
T1 construct: endogenous in cells; host or cells: Jurkat cells (ATCC TIB-152, clone E6-1), lysate
Procedure, shortened: (§1)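 Jurkat cell lysate (5 mg/mL protein) incubated 2 h in the cold with test compound (9-step 1:3 series) and immobilized phenylthiazole/phenylmorpholin-chromen ligand beads. Bead-bound kinases eluted, detected by specific antibody dot blot with infrared readout; IC50 from dose-response curves.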

[1] = molecular target: T2, DNA-dependent protein kinase (DNA-PK) (Homo sapiens, UniProt P78527); assay: kinobeads assay, DNA-PK (dot blot detection)
T2 construct: endogenous in cells; host or cells: Jurkat cells (ATCC TIB-152, clone E6-1), lysate
T2 sequence (P78527 whole entry): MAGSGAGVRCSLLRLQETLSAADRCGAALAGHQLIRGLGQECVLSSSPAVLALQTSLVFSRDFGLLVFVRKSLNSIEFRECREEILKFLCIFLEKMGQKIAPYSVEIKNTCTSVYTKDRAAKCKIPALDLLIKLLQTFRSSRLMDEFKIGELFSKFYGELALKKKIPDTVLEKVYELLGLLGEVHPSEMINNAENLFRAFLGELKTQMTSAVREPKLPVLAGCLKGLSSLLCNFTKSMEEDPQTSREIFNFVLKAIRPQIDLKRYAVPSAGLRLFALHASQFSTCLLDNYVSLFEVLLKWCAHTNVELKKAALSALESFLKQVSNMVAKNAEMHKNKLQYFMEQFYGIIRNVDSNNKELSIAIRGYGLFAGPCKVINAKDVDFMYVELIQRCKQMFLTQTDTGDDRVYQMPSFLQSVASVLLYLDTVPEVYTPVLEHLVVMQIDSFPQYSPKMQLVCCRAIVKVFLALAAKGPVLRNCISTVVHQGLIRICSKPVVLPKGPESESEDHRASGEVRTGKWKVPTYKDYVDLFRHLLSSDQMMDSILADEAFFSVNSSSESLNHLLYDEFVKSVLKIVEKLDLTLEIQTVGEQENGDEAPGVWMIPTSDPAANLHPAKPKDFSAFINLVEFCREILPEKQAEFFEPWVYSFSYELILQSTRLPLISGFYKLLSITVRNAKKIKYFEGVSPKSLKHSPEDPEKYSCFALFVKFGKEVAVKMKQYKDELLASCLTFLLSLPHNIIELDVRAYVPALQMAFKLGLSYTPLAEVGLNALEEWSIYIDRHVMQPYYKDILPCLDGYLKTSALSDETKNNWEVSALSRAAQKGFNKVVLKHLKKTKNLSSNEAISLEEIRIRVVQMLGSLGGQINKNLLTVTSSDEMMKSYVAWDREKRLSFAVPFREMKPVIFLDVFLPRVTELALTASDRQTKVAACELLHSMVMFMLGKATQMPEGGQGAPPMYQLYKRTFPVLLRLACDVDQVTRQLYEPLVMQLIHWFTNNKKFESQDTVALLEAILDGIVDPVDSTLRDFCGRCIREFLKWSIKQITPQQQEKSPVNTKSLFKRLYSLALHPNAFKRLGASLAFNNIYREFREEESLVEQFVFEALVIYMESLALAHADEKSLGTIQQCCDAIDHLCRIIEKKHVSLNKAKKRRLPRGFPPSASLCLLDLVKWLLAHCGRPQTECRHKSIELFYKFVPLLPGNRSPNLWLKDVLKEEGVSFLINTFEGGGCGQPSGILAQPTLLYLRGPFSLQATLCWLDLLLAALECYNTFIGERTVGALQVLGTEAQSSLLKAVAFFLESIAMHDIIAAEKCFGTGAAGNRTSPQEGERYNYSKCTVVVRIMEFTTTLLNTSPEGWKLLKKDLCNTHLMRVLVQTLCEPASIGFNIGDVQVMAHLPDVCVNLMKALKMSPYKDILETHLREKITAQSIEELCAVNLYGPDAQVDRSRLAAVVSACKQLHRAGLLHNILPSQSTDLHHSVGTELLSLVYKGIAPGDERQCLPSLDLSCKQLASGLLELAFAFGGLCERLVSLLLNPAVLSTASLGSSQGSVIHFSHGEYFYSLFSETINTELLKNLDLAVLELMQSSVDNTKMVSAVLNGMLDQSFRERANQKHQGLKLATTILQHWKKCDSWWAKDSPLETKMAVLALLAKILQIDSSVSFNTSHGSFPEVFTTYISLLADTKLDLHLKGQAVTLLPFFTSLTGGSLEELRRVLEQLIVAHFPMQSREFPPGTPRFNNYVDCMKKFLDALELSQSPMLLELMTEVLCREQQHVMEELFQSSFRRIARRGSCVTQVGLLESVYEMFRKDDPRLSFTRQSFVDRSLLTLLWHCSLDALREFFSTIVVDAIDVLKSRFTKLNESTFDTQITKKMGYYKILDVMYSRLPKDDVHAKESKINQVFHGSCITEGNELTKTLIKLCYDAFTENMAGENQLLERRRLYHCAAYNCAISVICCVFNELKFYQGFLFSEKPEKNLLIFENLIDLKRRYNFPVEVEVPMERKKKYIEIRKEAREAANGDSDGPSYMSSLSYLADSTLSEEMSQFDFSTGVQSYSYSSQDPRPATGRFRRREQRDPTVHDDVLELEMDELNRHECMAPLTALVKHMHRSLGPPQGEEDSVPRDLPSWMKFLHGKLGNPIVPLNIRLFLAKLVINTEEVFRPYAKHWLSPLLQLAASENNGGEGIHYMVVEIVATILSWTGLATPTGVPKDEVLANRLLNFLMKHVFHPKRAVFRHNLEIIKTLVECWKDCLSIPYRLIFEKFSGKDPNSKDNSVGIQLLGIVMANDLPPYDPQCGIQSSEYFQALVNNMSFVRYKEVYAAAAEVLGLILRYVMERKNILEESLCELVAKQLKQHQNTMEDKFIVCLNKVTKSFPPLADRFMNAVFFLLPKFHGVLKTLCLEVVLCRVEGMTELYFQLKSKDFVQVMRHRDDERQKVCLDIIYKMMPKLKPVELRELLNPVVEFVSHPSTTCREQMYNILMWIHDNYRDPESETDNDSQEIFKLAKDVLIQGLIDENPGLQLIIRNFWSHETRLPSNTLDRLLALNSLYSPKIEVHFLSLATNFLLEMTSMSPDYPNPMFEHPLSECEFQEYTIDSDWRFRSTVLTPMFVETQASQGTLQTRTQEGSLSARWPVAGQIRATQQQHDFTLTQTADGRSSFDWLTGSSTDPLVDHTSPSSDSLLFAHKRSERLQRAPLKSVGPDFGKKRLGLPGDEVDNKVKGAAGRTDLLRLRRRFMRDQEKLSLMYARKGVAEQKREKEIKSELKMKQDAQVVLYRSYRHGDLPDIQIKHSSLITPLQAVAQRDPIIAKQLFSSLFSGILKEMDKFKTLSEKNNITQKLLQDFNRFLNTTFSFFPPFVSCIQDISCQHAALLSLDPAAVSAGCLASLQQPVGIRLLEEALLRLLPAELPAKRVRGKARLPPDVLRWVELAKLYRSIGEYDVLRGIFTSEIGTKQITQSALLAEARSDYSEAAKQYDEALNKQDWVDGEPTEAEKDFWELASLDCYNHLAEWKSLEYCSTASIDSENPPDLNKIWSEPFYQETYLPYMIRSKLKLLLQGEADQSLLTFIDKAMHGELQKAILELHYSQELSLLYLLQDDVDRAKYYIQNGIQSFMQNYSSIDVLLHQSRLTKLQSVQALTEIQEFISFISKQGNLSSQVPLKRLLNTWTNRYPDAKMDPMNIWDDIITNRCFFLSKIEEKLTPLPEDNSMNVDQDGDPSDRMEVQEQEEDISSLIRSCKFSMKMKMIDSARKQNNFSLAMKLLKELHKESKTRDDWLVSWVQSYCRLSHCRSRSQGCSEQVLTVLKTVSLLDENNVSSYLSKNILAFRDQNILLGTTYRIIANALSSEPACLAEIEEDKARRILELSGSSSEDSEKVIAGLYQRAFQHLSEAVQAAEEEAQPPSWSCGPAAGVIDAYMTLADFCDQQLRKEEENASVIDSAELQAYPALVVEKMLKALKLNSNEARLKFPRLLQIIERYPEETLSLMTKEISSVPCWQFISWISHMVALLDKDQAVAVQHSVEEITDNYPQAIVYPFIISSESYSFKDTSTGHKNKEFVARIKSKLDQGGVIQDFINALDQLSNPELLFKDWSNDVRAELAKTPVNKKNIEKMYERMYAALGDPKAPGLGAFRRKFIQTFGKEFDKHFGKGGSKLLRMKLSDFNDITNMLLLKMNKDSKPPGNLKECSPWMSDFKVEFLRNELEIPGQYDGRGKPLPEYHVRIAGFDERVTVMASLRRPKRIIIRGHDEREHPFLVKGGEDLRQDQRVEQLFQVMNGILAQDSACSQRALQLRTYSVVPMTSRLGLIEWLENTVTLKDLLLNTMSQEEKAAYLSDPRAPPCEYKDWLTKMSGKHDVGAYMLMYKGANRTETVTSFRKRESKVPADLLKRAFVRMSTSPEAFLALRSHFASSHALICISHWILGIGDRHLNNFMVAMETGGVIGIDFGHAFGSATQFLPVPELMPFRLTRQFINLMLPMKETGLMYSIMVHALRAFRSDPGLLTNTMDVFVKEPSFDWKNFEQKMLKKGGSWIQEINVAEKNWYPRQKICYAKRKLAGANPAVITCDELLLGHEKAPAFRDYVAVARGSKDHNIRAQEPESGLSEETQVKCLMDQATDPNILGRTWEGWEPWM
Procedure, shortened: as §1

PI3Kα = molecular target: T3, PI3Kα (Homo sapiens, UniProt P42336); assay: kinobeads assay, PI3K alpha (dot blot detection); details: Table 4, read-out: Inhibition values (IC50) PI3Ka
T3 construct: endogenous in cells; host or cells: Jurkat cells (ATCC TIB-152) lysate, the only lysate described

PI3Kβ = molecular target: T4, PI3Kβ (Homo sapiens, UniProt P42338); assay: kinobeads assay, PI3K beta (dot blot detection); details: Table 4, read-out: Inhibition values (IC50) PI3Kb
T4 construct: endogenous in cells; host or cells: Jurkat cells (ATCC TIB-152) lysate, the only lysate described

PI3Kγ = molecular target: T5, PI3Kγ (Homo sapiens, UniProt P48736); assay: kinobeads assay, PI3K gamma (dot blot detection); details: Table 4, read-out: Inhibition values (IC50) PI3Kg
T5 construct: endogenous in cells; host or cells: Jurkat cells (ATCC TIB-152) lysate, the only lysate described

[2] = Table 2, Jurkat cell lysate, read-out: Inhibition values (IC50) PI3Kd
[3] = Table 4, read-out: Inhibition values (IC50) PI3Kd
[4] = Table 2, Jurkat cell lysate, read-out: Inhibition values (IC50) DNAPK
[5] = Table 4, read-out: Inhibition values (IC50) DNAPK

| IC50 (PI3K delta (PI3Kd); [2]) [µM] | IC50 (PI3K delta (PI3Kd); [3]) [µM] | IC50 [1, 4] [µM] | IC50 [1, 5] [µM] | IC50 (PI3Kα) [µM] | IC50 (PI3Kβ) [µM] | IC50 (PI3Kγ) [µM] | SMILES |
| --- | --- | --- | --- | --- | --- | --- | --- |
| ≥ 10 | ≥ 10 | ≥ 10 | ≥ 10 | ≥ 10 | ≥ 10 | ≥ 10 | C[C@H]1COCCN1c1nc(-c2ccc(NC(=O)NCCCO)cc2)cc(-c2cc(F)ccc2S(C)(=O)=O)n1 [Example 64, (S)-1-(4-(6-(5-fluoro-2-(methylsulfonyl)phenyl)-2-(3-methylmorpholino)pyrimidin-4-yl)phenyl)-3-(3-hydroxypropyl)urea] |
| ≥ 10 | ≥ 10 | ≥ 10 | ≥ 10 | ≥ 10 | ≥ 10 | ≥ 10 | C[C@H]1COCCN1c1nc(-c2ccc(NC(=O)NC3CC3)cc2)cc(-c2cc(F)ccc2S(C)(=O)=O)n1 [Example 40, (S)-1-cyclopropyl-3-(4-(6-(5-fluoro-2-(methylsulfonyl)phenyl)-2-(3-methylmorpholino)pyrimidin-4-yl)phenyl)urea] |
| ≥ 10 | ≥ 10 | ≥ 10 | 1 to 10 | ≥ 10 | ≥ 10 | ≥ 10 | O=C(Nc1ccncc1)Nc1ccc(-c2nccc(N3CC4CCC(C3)O4)n2)cc1 [Example 61, 1-(4-(4-(8-oxa-3-azabicyclo[3.2.1]octan-3-yl)pyrimidin-2-yl)phenyl)-3-(pyridin-4-yl)urea] |
| ≥ 10 | ≥ 10 | ≥ 10 | ≥ 10 | ≥ 10 | ≥ 10 | ≥ 10 | C[C@H]1COCCN1c1nc(-c2ccc(NC(=O)NCC(F)F)cc2)cc(-c2cc(F)ccc2S(C)(=O)=O)n1 [Example 47, (S)-1-(2,2-difluoroethyl)-3-(4-(6-(5-fluoro-2-(methylsulfonyl)phenyl)-2-(3-methylmorpholino)pyrimidin-4-yl)phenyl)urea] |
| ≥ 10 | ≥ 10 | ≥ 10 | ≥ 10 | ≥ 10 | ≥ 10 | ≥ 10 | C[C@H]1COCCN1c1cc(-c2ccccc2S(C)(=O)=O)nc(-c2ccc(NC(=O)NC3CC3)cc2)n1 [Example 6, (S)-1-cyclopropyl-3-(4-(4-(3-methylmorpholino)-6-(2-(methylsulfonyl)phenyl)pyrimidin-2-yl)phenyl)urea] |
| ≥ 10 | ≥ 10 | ≥ 10 | ≥ 10 | – | – | – | CCNC(=O)Nc1ccc(-c2cc(-c3ccccc3C#N)nc(N3CCOC[C@@H]3C)n2)cc1 [Example 8, (S)-1-(4-(6-(2-cyanophenyl)-2-(3-methylmorpholino)pyrimidin-4-yl)phenyl)-3-ethylurea] |
| ≥ 10 | ≥ 10 | ≥ 10 | ≥ 10 | ≥ 10 | ≥ 10 | ≥ 10 | C[C@H]1COCCN1c1nc(-c2ccc(NC(=O)NC3CC3)cc2)cc(-c2cccnc2S(C)(=O)=O)n1 [Example 46, (S)-1-cyclopropyl-3-(4-(2-(3-methylmorpholino)-6-(2-(methylsulfonyl)pyridin-3-yl)pyrimidin-4-yl)phenyl)urea] |
| ≥ 10 | ≥ 10 | ≥ 10 | ≥ 10 | ≥ 10 | ≥ 10 | ≥ 10 | C[C@H]1COCCN1c1ccnc(-c2ccc(NC(=O)Nc3ccncc3)cc2)n1 [Example 60, (S)-1-(4-(4-(3-methylmorpholino)pyrimidin-2-yl)phenyl)-3-(pyridin-4-yl)urea] |
| – | ≥ 10 | – | ≥ 10 | ≥ 10 | ≥ 10 | ≥ 10 | C[C@H]1COCCN1c1nc(-c2ccc(NC(=O)N[C@H]3CCC[C@@H]3O)cc2)cc(-c2cc(F)ccc2S(C)(=O)=O)n1 [Example 76, 1-(4-(6-(5-fluoro-2-(methylsulfonyl)phenyl)-2-((S)-3-methylmorpholino)pyrimidin-4-yl)phenyl)-3-((1S,2S)-2-hydroxycyclopentyl)urea] |
| ≥ 10 | ≥ 10 | ≥ 10 | ≥ 10 | ≥ 10 | ≥ 10 | ≥ 10 | C[C@H]1COCCN1c1cc(-c2ccccn2)nc(-c2ccc(NC(=O)NCCO)cc2)n1 [Example 43, (S)-1-(2-hydroxyethyl)-3-(4-(4-(3-methylmorpholino)-6-(pyridin-2-yl)pyrimidin-2-yl)phenyl)urea] |
| ≥ 10 | ≥ 10 | ≥ 10 | ≥ 10 | ≥ 10 | ≥ 10 | ≥ 10 | C[C@H]1COCCN1c1cc(-c2ccc(F)nc2)nc(-c2ccc(NC(=O)NC3CC3)cc2)n1 [Example 21, (S)-1-cyclopropyl-3-(4-(4-(6-fluoropyridin-3-yl)-6-(3-methylmorpholino)pyrimidin-2-yl)phenyl)urea] |
| ≥ 10 | ≥ 10 | ≥ 10 | ≥ 10 | ≥ 10 | ≥ 10 | ≥ 10 | C[C@H]1COCCN1c1cc(-c2cncc(F)c2)nc(-c2ccc(NC(=O)NC3CC3)cc2)n1 [Example 23, (S)-1-cyclopropyl-3-(4-(4-(5-fluoropyridin-3-yl)-6-(3-methylmorpholino)pyrimidin-2-yl)phenyl)urea] |
| ≥ 10 | ≥ 10 | ≥ 10 | ≥ 10 | ≥ 10 | ≥ 10 | ≥ 10 | C[C@H]1COCCN1c1nc(-c2ccc(NC(=O)NC3CC3)cc2)cc(-c2ccccc2S(C)(=O)=O)n1 [Example 4, (S)-1-cyclopropyl-3-(4-(2-(3-methylmorpholino)-6-(2-(methylsulfonyl)phenyl)pyrimidin-4-yl)phenyl)urea] |
| ≥ 10 | ≥ 10 | ≥ 10 | ≥ 10 | ≥ 10 | ≥ 10 | ≥ 10 | C[C@H]1COCCN1c1cc(-c2ccccn2)nc(-c2ccc(NC(=O)NC3CC3)cc2)n1 [Example 42, (S)-1-cyclopropyl-3-(4-(4-(3-methylmorpholino)-6-(pyridin-2-yl)pyrimidin-2-yl)phenyl)urea] |
| ≥ 10 | ≥ 10 | ≥ 10 | ≥ 10 | ≥ 10 | ≥ 10 | ≥ 10 | C[C@H]1COCCN1c1nc(-c2ccc(NC(=O)NCCO)cc2)cc(-c2cc(F)ccc2S(C)(=O)=O)n1 [Example 41, (S)-1-(4-(6-(5-fluoro-2-(methylsulfonyl)phenyl)-2-(3-methylmorpholino)pyrimidin-4-yl)phenyl)-3-(2-hydroxyethyl)urea] |
| ≥ 10 | ≥ 10 | ≥ 10 | ≥ 10 | ≥ 10 | ≥ 10 | ≥ 10 | CS(=O)(=O)c1ccc(F)cc1-c1cc(-c2ccc(NC(=O)NCCO)cc2)nc(N2CCOCC2)n1 [Example 62, 1-(4-(6-(5-fluoro-2-(methylsulfonyl)phenyl)-2-morpholinopyrimidin-4-yl)phenyl)-3-(2-hydroxyethyl)urea] |
| ≥ 10 | ≥ 10 | ≥ 10 | ≥ 10 | ≥ 10 | ≥ 10 | ≥ 10 | CCNC(=O)Nc1ccc(-c2cc(-c3cc(F)ccc3S(C)(=O)=O)nc(N3CCOC[C@@H]3C)n2)cc1 [Example 2, (S)-1-ethyl-3-(4-(6-(5-fluoro-2-(methylsulfonyl)phenyl)-2-(3-methylmorpholino)pyrimidin-4-yl)phenyl)urea] |
| ≥ 10 | ≥ 10 | ≥ 10 | ≥ 10 | ≥ 10 | ≥ 10 | ≥ 10 | C[C@H]1COCCN1c1nc(-c2ccc(NC(=O)NCCF)cc2)cc(-c2cc(F)ccc2S(C)(=O)=O)n1 [Example 44, (S)-1-(4-(6-(5-fluoro-2-(methylsulfonyl)phenyl)-2-(3-methylmorpholino)pyrimidin-4-yl)phenyl)-3-(2-fluoroethyl)urea] |
